We go through 18 compounds from US20230348442A1, “GALECTIN-3 INHIBITING 2-HYDROXYCYCLOALKANE-1-CARBAMOYL DERIVATIVES” (Idorsia Pharmaceuticals Ltd, priority 2020, published 2023).

The target of this test is human Gal-3 (hGal-3) (Homo sapiens (Human), UniProt P17931). The test is described as follows: competitive binding assay: binding of biotinylated hGal-3 to microplate-adsorbed asialofetuin (ASF), spectrophotometric. The settings on record: Activity on hGal-3; mean values of several measurements. Put shortly: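 Compounds diluted in DMSO competed with biotinylated hGal-3 or hGal-1 (300-1000 ng/mL) for binding to plate-adsorbed asialofetuin for 3 h at 4° C. Bound galectin was detected with streptavidin-peroxidase (80 ng/mL, 1 h, 4° C) and ABTS substrate; IC50 reported as mean of several measurements.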
Chain of human Gal-3 (hGal-3) (P17931 whole entry): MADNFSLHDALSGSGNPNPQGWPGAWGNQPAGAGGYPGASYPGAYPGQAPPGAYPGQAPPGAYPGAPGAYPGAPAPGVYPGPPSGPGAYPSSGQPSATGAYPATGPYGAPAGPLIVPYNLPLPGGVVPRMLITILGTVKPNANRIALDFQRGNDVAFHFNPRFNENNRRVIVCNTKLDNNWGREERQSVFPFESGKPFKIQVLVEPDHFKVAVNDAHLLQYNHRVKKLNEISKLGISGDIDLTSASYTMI
By IC50 is commonly meant the concentration that gives 50% inhibition. A higher IC50 goes with lower potency. `CO[C@@H]1[C@@H](n2cc(-c3cc(F)cc(Br)c3)nn2)[C@@H](O)[C@@H](CO)O[C@H]1C(=O)N(c1cc(C)cc(C#N)c1)[C@@H]1CC[C@H]1O` [Example 2.10.8R, (2R,3R,4S,5R,6R)-4-(4-(3-bromo-5-fluorophenyl)-1H-1,2,3-triazol-1-yl)-N-(3-cyano-5-methylphenyl)-5-hydroxy-N-((1R,2R)-2-hydroxycyclobutyl)-6-(hydroxymethyl)-3-methoxytetrahydro-2H-pyran-2-carboxamide]: the 50% inhibitory concentration (IC50) stood at 1190 nM.

Regarding `COc1cc(C#N)cc(N(C(=O)[C@@H]2O[C@H](CO)[C@H](O)[C@H](n3cc(-c4cc(F)cc(Br)c4)nn3)[C@H]2OC)[C@H]2CC[C@@H]2O)c1` [Example 2.10.9, (2R,3R,4S,5R,6R)-4-(4-(3-bromo-5-fluorophenyl)-1H-1,2,3-triazol-1-yl)-N-(3-cyano-5-methoxyphenyl)-5-hydroxy-N-((1S,2S)-2-hydroxycyclobutyl)-6-(hydroxymethyl)-3-methoxytetrahydro-2H-pyran-2-carboxamide], the 50% inhibitory concentration (IC50) stood at 224 nM.

`COc1cc(C#N)cc(N(C(=O)[C@@H]2O[C@H](CO)[C@H](O)[C@H](n3cc(-c4cc(F)cc(Br)c4)nn3)[C@H]2OC)[C@@H]2CC[C@H]2O)c1` [Example 2.10.9R, (2R,3R,4S,5R,6R)-4-(4-(3-bromo-5-fluorophenyl)-1H-1,2,3-triazol-1-yl)-N-(3-cyano-5-methoxyphenyl)-5-hydroxy-N-((1R,2R)-2-hydroxycyclobutyl)-6-(hydroxymethyl)-3-methoxytetrahydro-2H-pyran-2-carboxamide]: the concentration for half-maximal inhibition (IC50) stood at 976 nM.

`CO[C@@H]1[C@@H](n2cc(-c3ccc(C)c(F)c3F)nn2)[C@@H](O)[C@@H](CO)O[C@H]1C(=O)N(c1cc(Cl)cc(Cl)c1)[C@H]1CC[C@@H]1O` [Example 2.11.2, (2R,3R,4S,5R,6R)-N-(3,5-dichlorophenyl)-4-(4-(2,3-difluoro-4-methylphenyl)-1H-1,2,3-triazol-1-yl)-5-hydroxy-N-((1S,2S)-2-hydroxycyclobutyl)-6-(hydroxymethyl)-3-methoxytetrahydro-2H-pyran-2-carboxamide] came in with a half-maximal inhibitory concentration (IC50) of 42.7 nM.

In turn, `CO[C@@H]1[C@@H](n2cc(-c3ccc(C)c(F)c3F)nn2)[C@@H](O)[C@@H](CO)O[C@H]1C(=O)N(c1cc(Cl)cc(Cl)c1)[C@@H]1CC[C@H]1O` [Example 2.11.2R, (2R,3R,4S,5R,6R)-N-(3,5-dichlorophenyl)-4-(4-(2,3-difluoro-4-methylphenyl)-1H-1,2,3-triazol-1-yl)-5-hydroxy-N-((1R,2R)-2-hydroxycyclobutyl)-6-(hydroxymethyl)-3-methoxytetrahydro-2H-pyran-2-carboxamide] returned an IC50 of 74.8 nM.

`CO[C@@H]1[C@@H](n2cc(-c3ccc(C)c(F)c3F)nn2)[C@@H](O)[C@@H](CO)O[C@H]1C(=O)N(c1cc(Br)cc(C#N)c1)[C@H]1CC[C@@H]1O` [Example 2.11.5, (2R,3R,4S,5R,6R)-N-(3-bromo-5-cyanophenyl)-4-(4-(2,3-difluoro-4-methylphenyl)-1H-1,2,3-triazol-1-yl)-5-hydroxy-N-((1S,2S)-2-hydroxycyclobutyl)-6-(hydroxymethyl)-3-methoxytetrahydro-2H-pyran-2-carboxamide] came in with an IC50 of 17.1 nM.

For `CO[C@@H]1[C@@H](n2cc(-c3ccc(C)c(F)c3F)nn2)[C@@H](O)[C@@H](CO)O[C@H]1C(=O)N(c1cc(Br)cc(C#N)c1)[C@@H]1CC[C@H]1O` [Example 2.11.5R, (2R,3R,4S,5R,6R)-N-(3-bromo-5-cyanophenyl)-4-(4-(2,3-difluoro-4-methylphenyl)-1H-1,2,3-triazol-1-yl)-5-hydroxy-N-((1R,2R)-2-hydroxycyclobutyl)-6-(hydroxymethyl)-3-methoxytetrahydro-2H-pyran-2-carboxamide], the IC50 came to 98.7 nM.

On to `CO[C@@H]1[C@@H](n2cc(-c3ccc(Br)c(F)c3F)nn2)[C@@H](O)[C@@H](CO)O[C@H]1C(=O)N(c1cc(Cl)cc(Cl)c1)[C@H]1CC[C@@H]1O` [Example 2.12.2, (2R,3R,4S,5R,6R)-4-(4-(4-bromo-2,3-difluorophenyl)-1H-1,2,3-triazol-1-yl)-N-(3,5-dichlorophenyl)-5-hydroxy-N-((1S,2S)-2-hydroxycyclobutyl)-6-(hydroxymethyl)-3-methoxytetrahydro-2H-pyran-2-carboxamide], for which the half-maximal inhibitory concentration (IC50) is 180 nM.

Compound `CO[C@@H]1[C@@H](n2cc(-c3ccc(Br)c(F)c3F)nn2)[C@@H](O)[C@@H](CO)O[C@H]1C(=O)N(c1cc(Cl)cc(Cl)c1)[C@@H]1CC[C@H]1O` [Example 2.12.2R, (2R,3R,4S,5R,6R)-4-(4-(4-bromo-2,3-difluorophenyl)-1H-1,2,3-triazol-1-yl)-N-(3,5-dichlorophenyl)-5-hydroxy-N-((1R,2R)-2-hydroxycyclobutyl)-6-(hydroxymethyl)-3-methoxytetrahydro-2H-pyran-2-carboxamide] had an IC50 of 100 nM.

`CO[C@@H]1[C@@H](n2cc(-c3ccc(Br)c(F)c3F)nn2)[C@@H](O)[C@@H](CO)O[C@H]1C(=O)N(c1cc(Cl)cc(C#N)c1)[C@H]1CC[C@@H]1O` [Example 2.12.4, (2R,3R,4S,5R,6R)-4-(4-(4-bromo-2,3-difluorophenyl)-1H-1,2,3-triazol-1-yl)-N-(3-chloro-5-cyanophenyl)-5-hydroxy-N-((1S,2S)-2-hydroxycyclobutyl)-6-(hydroxymethyl)-3-methoxytetrahydro-2H-pyran-2-carboxamide]: the 50% inhibitory concentration (IC50) was found to be 45 nM.

For the compound `CO[C@@H]1[C@@H](n2cc(-c3ccc(Br)c(F)c3F)nn2)[C@@H](O)[C@@H](CO)O[C@H]1C(=O)N(c1cc(Cl)cc(C#N)c1)[C@@H]1CC[C@H]1O` [Example 2.12.4R, (2R,3R,4S,5R,6R)-4-(4-(4-bromo-2,3-difluorophenyl)-1H-1,2,3-triazol-1-yl)-N-(3-chloro-5-cyanophenyl)-5-hydroxy-N-((1R,2R)-2-hydroxycyclobutyl)-6-(hydroxymethyl)-3-methoxytetrahydro-2H-pyran-2-carboxamide], the half-maximal inhibitory concentration (IC50) worked out at 135 nM.

Consider `CO[C@@H]1[C@@H](n2cc(-c3ccc(Br)c(F)c3F)nn2)[C@@H](O)[C@@H](CO)O[C@H]1C(=O)N(c1cc(Br)cc(C#N)c1)[C@H]1CC[C@@H]1O` [Example 2.12.5, (2R,3R,4S,5R,6R)-4-(4-(4-bromo-2,3-difluorophenyl)-1H-1,2,3-triazol-1-yl)-N-(3-bromo-5-cyanophenyl)-5-hydroxy-N-((1S,2S)-2-hydroxycyclobutyl)-6-(hydroxymethyl)-3-methoxytetrahydro-2H-pyran-2-carboxamide], for which the IC50 was determined as 25.9 nM.

In the case of `CO[C@@H]1[C@@H](n2cc(-c3ccc(Br)c(F)c3F)nn2)[C@@H](O)[C@@H](CO)O[C@H]1C(=O)N(c1cc(Br)cc(C#N)c1)[C@@H]1CC[C@H]1O` [Example 2.12.5R, (2R,3R,4S,5R,6R)-4-(4-(4-bromo-2,3-difluorophenyl)-1H-1,2,3-triazol-1-yl)-N-(3-bromo-5-cyanophenyl)-5-hydroxy-N-((1R,2R)-2-hydroxycyclobutyl)-6-(hydroxymethyl)-3-methoxytetrahydro-2H-pyran-2-carboxamide], the IC50 came out at 78.5 nM.

With `CO[C@@H]1[C@@H](n2cc(-c3ccc(Br)c(F)c3F)nn2)[C@@H](O)[C@@H](CO)O[C@H]1C(=O)N(c1cc(F)cc(C#N)c1)[C@H]1CC[C@@H]1O` [Example 2.12.7, (2R,3R,4S,5R,6R)-4-(4-(4-bromo-2,3-difluorophenyl)-1H-1,2,3-triazol-1-yl)-N-(3-cyano-5-fluorophenyl)-5-hydroxy-N-((1S,2S)-2-hydroxycyclobutyl)-6-(hydroxymethyl)-3-methoxytetrahydro-2H-pyran-2-carboxamide], the IC50 worked out at 48 nM.

`CO[C@@H]1[C@@H](n2cc(-c3ccc(Br)c(F)c3F)nn2)[C@@H](O)[C@@H](CO)O[C@H]1C(=O)N(c1cc(F)cc(C#N)c1)[C@@H]1CC[C@H]1O` [Example 2.12.7R, (2R,3R,4S,5R,6R)-4-(4-(4-bromo-2,3-difluorophenyl)-1H-1,2,3-triazol-1-yl)-N-(3-cyano-5-fluorophenyl)-5-hydroxy-N-((1R,2R)-2-hydroxycyclobutyl)-6-(hydroxymethyl)-3-methoxytetrahydro-2H-pyran-2-carboxamide] displayed an IC50 of 107 nM.

In turn, `CO[C@@H]1[C@@H](n2cc(-c3ccc(C#N)c(F)c3)nn2)[C@@H](O)[C@@H](CO)O[C@H]1C(=O)N(c1cc(Br)cc(C#N)c1)[C@H]1CC[C@@H]1O` [Example 2.16.5, (2R,3R,4S,5R,6R)-N-(3-bromo-5-cyanophenyl)-4-(4-(4-cyano-3-fluorophenyl)-1H-1,2,3-triazol-1-yl)-5-hydroxy-N-((1S,2S)-2-hydroxycyclobutyl)-6-(hydroxymethyl)-3-methoxytetrahydro-2H-pyran-2-carboxamide] displayed a concentration for half-maximal inhibition (IC50) of 243 nM.

In the case of `CO[C@@H]1[C@@H](n2cc(-c3ccc(C#N)c(F)c3)nn2)[C@@H](O)[C@@H](CO)O[C@H]1C(=O)N(c1cc(Br)cc(C#N)c1)[C@@H]1CC[C@H]1O` [Example 2.16.5R, (2R,3R,4S,5R,6R)-N-(3-bromo-5-cyanophenyl)-4-(4-(4-cyano-3-fluorophenyl)-1H-1,2,3-triazol-1-yl)-5-hydroxy-N-((1R,2R)-2-hydroxycyclobutyl)-6-(hydroxymethyl)-3-methoxytetrahydro-2H-pyran-2-carboxamide], the IC50 turned out to be 805 nM.

The compound `CO[C@@H]1[C@@H](n2cc(-c3cc(F)c(Cl)c(Cl)c3)nn2)[C@@H](O)[C@@H](CO)O[C@H]1C(=O)N(c1cc(Cl)cc(C#N)c1)[C@H]1CC[C@@H]1O` [Example 2.17.4, (2R,3R,4S,5R,6R)-N-(3-chloro-5-cyanophenyl)-4-(4-(3,4-dichloro-5-fluorophenyl)-1H-1,2,3-triazol-1-yl)-5-hydroxy-N-((1S,2S)-2-hydroxycyclobutyl)-6-(hydroxymethyl)-3-methoxytetrahydro-2H-pyran-2-carboxamide] gave an IC50 of 79.2 nM.
